Key:
[1] = test system: SGC-7901; experiment: Anticancer activity against human SGC7901 cells assessed as cell survival measured after 48 hrs by MTT assay; format: functional, cell-based; details: SGC-7901, 48 h
[2] = test system: B16-F10; experiment: Anticancer activity against mouse B16F10 cells assessed as cell survival measured after 48 hrs by MTT assay; format: functional, cell-based; details: B16-F10, 48 h
[3] = target: Telomerase reverse transcriptase (Homo sapiens, UniProt O14746); experiment: Inhibition of telomerase in human SGC7901 cells by TRAP assay; format: cell-based, SGC-7901
Chain of Telomerase reverse transcriptase (O14746 whole entry): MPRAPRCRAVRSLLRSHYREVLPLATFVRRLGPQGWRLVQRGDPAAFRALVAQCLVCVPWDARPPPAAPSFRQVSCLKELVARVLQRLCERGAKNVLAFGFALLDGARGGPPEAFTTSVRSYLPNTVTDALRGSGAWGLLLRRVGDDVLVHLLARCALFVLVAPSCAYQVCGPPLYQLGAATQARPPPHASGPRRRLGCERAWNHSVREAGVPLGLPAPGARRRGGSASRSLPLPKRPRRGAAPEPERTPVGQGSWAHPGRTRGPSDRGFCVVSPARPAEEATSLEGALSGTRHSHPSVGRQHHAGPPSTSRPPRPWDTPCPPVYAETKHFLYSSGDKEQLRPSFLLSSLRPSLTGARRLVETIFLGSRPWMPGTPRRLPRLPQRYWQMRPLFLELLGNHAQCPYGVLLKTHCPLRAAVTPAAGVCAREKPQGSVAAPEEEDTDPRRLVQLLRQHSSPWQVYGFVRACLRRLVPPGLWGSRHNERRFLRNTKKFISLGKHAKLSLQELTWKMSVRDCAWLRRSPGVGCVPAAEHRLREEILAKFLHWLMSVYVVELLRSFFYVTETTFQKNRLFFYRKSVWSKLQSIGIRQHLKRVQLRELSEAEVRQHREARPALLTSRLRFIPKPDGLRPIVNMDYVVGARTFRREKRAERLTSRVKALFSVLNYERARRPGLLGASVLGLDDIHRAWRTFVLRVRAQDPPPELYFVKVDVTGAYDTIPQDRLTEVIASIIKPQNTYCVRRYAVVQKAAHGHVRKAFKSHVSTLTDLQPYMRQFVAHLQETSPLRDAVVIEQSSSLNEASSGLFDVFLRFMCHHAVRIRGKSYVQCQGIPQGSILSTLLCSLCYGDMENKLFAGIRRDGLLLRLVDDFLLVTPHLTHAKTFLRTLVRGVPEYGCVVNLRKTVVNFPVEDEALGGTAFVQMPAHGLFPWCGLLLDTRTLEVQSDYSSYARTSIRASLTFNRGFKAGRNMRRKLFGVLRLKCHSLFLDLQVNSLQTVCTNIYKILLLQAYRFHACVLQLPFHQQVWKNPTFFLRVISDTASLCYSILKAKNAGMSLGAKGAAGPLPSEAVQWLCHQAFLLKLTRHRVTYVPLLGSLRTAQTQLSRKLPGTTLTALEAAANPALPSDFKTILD

Structure (SMILES)	IC50 [1] [µM]	IC50 [2] [µM]	IC50 [3] [µM]
CC(=O)N1N=C(c2ccc(C)cc2)CC1c1ccc2c(c1)OCO2 (stereo not given)	21.2	12.8	1.3
CC(=O)N1N=C(c2ccccc2)CC1c1ccc2c(c1)OCO2 (stereo not given)	25.7	14	3.4
CC(=O)N1N=C(c2ccc(Br)cc2)CC1c1ccc2c(c1)OCO2 (stereo not given)	30.1	18.9	6.2
CC(=O)N1N=C(c2ccc(F)cc2)CC1c1ccc2c(c1)OCCCO2 (stereo not given)			83.6
CC(=O)N1N=C(c2ccc(Cl)cc2)CC1c1ccc2c(c1)OCCCO2 (stereo not given)			82.6
CC(=O)N1N=C(c2ccc(Br)cc2)CC1c1ccc2c(c1)OCCCO2 (stereo not given)		97	76.4
CC(=O)N1N=C(c2ccc(C)cc2)CC1c1ccc2c(c1)OCCCO2 (stereo not given)		89.7	54.9
COc1ccc(C2=NN(C(C)=O)C(c3ccc4c(c3)OCCCO4)C2)cc1 (stereo not given)	94	85.3	46.7
CC(=O)N1N=C(c2ccc([N+](=O)[O-])cc2)CC1c1ccc2c(c1)OCCCO2 (stereo not given)			93.2
CC(=O)N1N=C(c2ccc(F)cc2)CC1c1ccc2c(c1)OCO2 (stereo not given)	40.9	22.2	7.3
CC(=O)N1N=C(c2ccc(Cl)cc2)CC1c1ccc2c(c1)OCO2 (stereo not given)	35.3	20.8	6.7
COc1ccc(C2=NN(C(C)=O)C(c3ccc4c(c3)OCO4)C2)cc1 (stereo not given)	18.1	5.34	0.9
CC(=O)N1N=C(c2ccc([N+](=O)[O-])cc2)CC1c1ccc2c(c1)OCO2 (stereo not given)	41.9	24.7	8.7
CC(=O)N1N=C(c2ccccc2)CC1c1ccc2c(c1)OCCO2 (stereo not given)	50.2	39.5	18.5
CC(=O)N1N=C(c2ccc(F)cc2)CC1c1ccc2c(c1)OCCO2 (stereo not given)	68.4	53.1	25.7
CC(=O)N1N=C(c2ccc(Cl)cc2)CC1c1ccc2c(c1)OCCO2 (stereo not given)	59.5	47.3	23.8
CC(=O)N1N=C(c2ccc(Br)cc2)CC1c1ccc2c(c1)OCCO2 (stereo not given)	52.3	44.1	22.9
CC(=O)N1N=C(c2ccc(C)cc2)CC1c1ccc2c(c1)OCCO2 (stereo not given)	49.2	37.9	13.4
COc1ccc(C2=NN(C(C)=O)C(c3ccc4c(c3)OCCO4)C2)cc1 (stereo not given)	45.8	31.7	10.6
CC(=O)N1N=C(c2ccc([N+](=O)[O-])cc2)CC1c1ccc2c(c1)OCCO2 (stereo not given)	70	57.8	37.4
CC(=O)N1N=C(c2ccccc2)CC1c1ccc2c(c1)OCCCO2 (stereo not given)			68.3
O=c1[nH]cc(F)c(=O)[nH]1 [FLUOROURACIL]	46.4	21.4	
